Assay results taken from the NIST ThermoML archive (doi:10.1016/j.jct.2016.05.001).

Conditions: 101.33 kPa, Crystal; for molar entropy: Small (less than 1 g) adiabatic calorimetry; for mass density: X-ray diffraction

Nc1nc2ncc(CNc3ccc(C(=O)N[C@@H](CCC(=O)O)C(=O)O)cc3)nc2c(=O)[nH]1.O.O [folic acid dihydrate]
Conditions | mass density [kg/m3] | molar entropy [J/K/mol]
4 K | – | 0.0255
5 K | – | 0.0623
6 K | – | 0.1291
7 K | – | 0.2371
8 K | – | 0.3983
9 K | – | 0.6346
10 K | – | 0.962
15 K | – | 3.956
20 K | – | 8.733
25 K | – | 15.36
30 K | – | 23.55
35 K | – | 32.93
40 K | – | 43.15
45 K | – | 53.9
50 K | – | 65
60 K | – | 87.81
70 K | – | 111.2
80 K | – | 134.6
90 K | – | 157.6
100 K | – | 180.2
110 K | – | 202.6
120 K | – | 224.6
130 K | – | 246.2
140 K | – | 267.7
150 K | 1556 | 288.9
160 K | – | 309.9
170 K | – | 330.6
175 K | 1554 | –
180 K | – | 351.2
190 K | – | 371.6
200 K | 1552 | 391.9
210 K | – | 412
220 K | – | 432
225 K | 1550 | –
230 K | – | 451.9
240 K | – | 471.7
250 K | 1549 | 491.4
260 K | – | 511
270 K | – | 530.5
273.15 K | – | 536.6
275 K | 1546 | –
280 K | – | 549.9
290 K | – | 569.3
298.15 K | – | 585
300 K | 1543 | 588.6
310 K | – | 607.8
320 K | – | 627
325 K | 1542 | –
330 K | – | 646.1
333 K | – | 651.9
350 K | 1540 | –
375 K | 1537 | –
